In ChEMBL document CHEMBL5291721, “A preclinical secondary pharmacology resource illuminates target-adverse drug reaction associations of marketed drugs” (Nat Commun, 2023):

Legend:
[1] = biological target: 3',5'-cyclic-AMP phosphodiesterase 4A (Homo sapiens, UniProt P27815); format: functional
[2] = biological target: T1, Muscarinic acetylcholine receptor M2 (Homo sapiens, UniProt P08172)
T1 sequence (P08172 whole entry): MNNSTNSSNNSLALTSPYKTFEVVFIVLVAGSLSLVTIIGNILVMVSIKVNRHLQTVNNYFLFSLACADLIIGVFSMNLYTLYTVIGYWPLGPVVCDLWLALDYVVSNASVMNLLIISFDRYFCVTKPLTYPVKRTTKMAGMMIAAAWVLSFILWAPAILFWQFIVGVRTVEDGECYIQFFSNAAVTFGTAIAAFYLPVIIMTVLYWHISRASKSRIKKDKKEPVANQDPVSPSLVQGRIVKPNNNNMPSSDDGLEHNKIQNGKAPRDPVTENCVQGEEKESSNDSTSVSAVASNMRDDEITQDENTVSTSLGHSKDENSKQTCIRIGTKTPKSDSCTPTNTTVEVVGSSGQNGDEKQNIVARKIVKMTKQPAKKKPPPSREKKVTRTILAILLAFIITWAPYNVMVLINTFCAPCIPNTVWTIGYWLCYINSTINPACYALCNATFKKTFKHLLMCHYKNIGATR

[3] = biological target: T2, Alpha-2A adrenergic receptor (Homo sapiens, UniProt P08913)
T2 sequence (P08913 whole entry): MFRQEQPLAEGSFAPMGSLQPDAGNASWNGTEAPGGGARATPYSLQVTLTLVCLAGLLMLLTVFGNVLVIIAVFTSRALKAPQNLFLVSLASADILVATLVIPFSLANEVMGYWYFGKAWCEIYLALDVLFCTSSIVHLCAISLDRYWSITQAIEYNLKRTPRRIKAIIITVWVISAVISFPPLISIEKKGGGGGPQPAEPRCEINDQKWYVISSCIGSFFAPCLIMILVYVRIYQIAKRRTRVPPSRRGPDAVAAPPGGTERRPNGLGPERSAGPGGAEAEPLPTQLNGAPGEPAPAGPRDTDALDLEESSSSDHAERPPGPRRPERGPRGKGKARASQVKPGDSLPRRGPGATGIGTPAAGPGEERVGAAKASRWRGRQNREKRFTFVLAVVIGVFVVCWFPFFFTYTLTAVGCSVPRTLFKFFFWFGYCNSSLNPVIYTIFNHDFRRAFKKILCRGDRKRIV

[4] = biological target: 5-hydroxytryptamine receptor 2B (Homo sapiens, UniProt P41595); format: functional, cell-based
Sequence of 5-hydroxytryptamine receptor 2B (P41595 whole entry): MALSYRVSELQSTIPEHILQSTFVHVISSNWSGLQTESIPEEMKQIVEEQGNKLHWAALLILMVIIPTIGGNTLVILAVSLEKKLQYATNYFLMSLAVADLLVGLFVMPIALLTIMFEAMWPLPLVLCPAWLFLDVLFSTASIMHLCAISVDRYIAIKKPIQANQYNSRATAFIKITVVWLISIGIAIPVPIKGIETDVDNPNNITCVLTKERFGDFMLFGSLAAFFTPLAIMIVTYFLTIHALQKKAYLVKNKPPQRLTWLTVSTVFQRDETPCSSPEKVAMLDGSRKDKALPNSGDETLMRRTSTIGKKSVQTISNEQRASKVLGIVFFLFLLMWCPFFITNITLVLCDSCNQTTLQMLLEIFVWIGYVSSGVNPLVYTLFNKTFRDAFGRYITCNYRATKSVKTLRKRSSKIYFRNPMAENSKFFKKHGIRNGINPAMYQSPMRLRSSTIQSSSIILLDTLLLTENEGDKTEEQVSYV

[5] = biological target: T3, 5-hydroxytryptamine receptor 1A (Homo sapiens, UniProt P08908)
T3 sequence (P08908 whole entry): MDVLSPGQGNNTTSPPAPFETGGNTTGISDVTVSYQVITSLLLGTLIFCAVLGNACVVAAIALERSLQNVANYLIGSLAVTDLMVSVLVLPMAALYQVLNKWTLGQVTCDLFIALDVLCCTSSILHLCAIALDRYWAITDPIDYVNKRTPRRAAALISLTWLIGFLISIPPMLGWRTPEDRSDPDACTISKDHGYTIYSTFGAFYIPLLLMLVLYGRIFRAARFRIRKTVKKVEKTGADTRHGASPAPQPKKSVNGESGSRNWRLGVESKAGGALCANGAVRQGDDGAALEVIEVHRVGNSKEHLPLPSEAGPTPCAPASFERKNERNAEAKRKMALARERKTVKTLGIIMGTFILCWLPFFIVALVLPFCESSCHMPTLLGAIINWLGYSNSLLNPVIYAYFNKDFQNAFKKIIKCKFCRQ

Histamine H3 receptor = Histamine H3 receptor (Homo sapiens, UniProt Q9Y5N1)
Sequence of Histamine H3 receptor (Q9Y5N1 whole entry): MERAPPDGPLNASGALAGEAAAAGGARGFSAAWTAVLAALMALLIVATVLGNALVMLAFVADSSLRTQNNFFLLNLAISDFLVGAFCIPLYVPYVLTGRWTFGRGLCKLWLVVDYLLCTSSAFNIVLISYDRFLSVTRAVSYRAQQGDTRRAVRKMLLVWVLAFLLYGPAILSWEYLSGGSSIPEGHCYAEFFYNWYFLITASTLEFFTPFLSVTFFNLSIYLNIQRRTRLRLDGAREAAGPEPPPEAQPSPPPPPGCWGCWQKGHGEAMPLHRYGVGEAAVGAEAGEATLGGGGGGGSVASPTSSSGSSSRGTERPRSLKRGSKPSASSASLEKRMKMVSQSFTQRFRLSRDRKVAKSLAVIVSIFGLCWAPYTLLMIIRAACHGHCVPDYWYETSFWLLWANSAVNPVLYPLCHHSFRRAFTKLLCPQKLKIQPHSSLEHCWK

Adenosine receptor A3 = biological target: T4, Adenosine receptor A3 (Homo sapiens, UniProt P0DMS8)
T4 sequence (P0DMS8 whole entry): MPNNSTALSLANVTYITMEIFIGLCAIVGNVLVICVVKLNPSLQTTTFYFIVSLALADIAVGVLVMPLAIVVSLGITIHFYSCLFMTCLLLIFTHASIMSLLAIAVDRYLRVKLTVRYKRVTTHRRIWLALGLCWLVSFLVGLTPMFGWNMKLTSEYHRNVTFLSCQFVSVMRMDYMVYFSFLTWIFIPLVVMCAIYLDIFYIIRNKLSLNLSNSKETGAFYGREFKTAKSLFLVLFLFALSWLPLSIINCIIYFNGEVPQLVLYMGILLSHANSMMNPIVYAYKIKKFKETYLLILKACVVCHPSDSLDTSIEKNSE

Prothrombin = Prothrombin (Homo sapiens, UniProt P00734); format: functional
[6] = biological target: Prostaglandin G/H synthase 1 (Homo sapiens, UniProt P23219); format: functional
Sequence of Prostaglandin G/H synthase 1 (P23219 whole entry): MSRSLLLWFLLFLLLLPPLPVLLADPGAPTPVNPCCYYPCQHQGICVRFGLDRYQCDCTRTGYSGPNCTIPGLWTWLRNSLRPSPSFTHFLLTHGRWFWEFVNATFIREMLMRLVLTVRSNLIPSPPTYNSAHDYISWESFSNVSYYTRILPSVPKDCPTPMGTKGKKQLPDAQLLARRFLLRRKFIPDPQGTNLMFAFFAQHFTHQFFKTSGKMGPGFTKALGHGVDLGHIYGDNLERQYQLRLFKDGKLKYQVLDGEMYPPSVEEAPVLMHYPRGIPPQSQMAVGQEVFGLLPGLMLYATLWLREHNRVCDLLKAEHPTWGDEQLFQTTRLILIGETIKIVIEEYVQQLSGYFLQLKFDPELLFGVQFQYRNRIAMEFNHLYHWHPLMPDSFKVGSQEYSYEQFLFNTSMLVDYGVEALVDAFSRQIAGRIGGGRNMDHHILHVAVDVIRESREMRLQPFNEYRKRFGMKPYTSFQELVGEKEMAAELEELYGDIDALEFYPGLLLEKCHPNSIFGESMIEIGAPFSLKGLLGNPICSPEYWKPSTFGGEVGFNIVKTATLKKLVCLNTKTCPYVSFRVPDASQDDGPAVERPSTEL

Progesterone receptor = biological target: T5, Progesterone receptor (Homo sapiens, UniProt P06401)
T5 sequence (P06401 whole entry): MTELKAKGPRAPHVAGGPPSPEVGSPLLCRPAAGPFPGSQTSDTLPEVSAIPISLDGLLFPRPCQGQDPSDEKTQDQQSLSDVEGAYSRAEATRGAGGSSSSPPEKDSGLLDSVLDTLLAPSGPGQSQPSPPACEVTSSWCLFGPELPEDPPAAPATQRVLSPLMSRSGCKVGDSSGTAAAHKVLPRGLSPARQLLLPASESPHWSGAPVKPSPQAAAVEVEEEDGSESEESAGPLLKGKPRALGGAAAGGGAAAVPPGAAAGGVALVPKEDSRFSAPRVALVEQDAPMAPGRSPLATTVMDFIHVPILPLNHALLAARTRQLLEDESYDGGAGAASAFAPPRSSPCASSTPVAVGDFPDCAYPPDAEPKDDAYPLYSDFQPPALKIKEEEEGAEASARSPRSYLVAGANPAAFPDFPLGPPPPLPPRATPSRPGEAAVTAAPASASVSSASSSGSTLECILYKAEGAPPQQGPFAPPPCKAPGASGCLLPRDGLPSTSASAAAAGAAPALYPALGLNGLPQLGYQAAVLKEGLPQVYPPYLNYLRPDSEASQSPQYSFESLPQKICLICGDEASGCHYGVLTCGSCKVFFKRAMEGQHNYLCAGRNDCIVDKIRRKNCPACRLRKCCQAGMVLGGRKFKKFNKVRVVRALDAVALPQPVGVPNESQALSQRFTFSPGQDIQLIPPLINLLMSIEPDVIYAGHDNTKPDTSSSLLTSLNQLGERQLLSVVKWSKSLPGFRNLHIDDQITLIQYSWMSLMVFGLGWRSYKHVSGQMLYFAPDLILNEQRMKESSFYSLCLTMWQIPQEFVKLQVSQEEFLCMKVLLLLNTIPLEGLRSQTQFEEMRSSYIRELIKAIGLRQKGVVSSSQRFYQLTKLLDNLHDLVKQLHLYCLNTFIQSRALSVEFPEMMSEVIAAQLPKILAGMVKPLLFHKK

[7] = biological target: cGMP-inhibited 3',5'-cyclic phosphodiesterase 3A (Homo sapiens, UniProt Q14432); format: functional
Sequence of cGMP-inhibited 3',5'-cyclic phosphodiesterase 3A (Q14432 whole entry): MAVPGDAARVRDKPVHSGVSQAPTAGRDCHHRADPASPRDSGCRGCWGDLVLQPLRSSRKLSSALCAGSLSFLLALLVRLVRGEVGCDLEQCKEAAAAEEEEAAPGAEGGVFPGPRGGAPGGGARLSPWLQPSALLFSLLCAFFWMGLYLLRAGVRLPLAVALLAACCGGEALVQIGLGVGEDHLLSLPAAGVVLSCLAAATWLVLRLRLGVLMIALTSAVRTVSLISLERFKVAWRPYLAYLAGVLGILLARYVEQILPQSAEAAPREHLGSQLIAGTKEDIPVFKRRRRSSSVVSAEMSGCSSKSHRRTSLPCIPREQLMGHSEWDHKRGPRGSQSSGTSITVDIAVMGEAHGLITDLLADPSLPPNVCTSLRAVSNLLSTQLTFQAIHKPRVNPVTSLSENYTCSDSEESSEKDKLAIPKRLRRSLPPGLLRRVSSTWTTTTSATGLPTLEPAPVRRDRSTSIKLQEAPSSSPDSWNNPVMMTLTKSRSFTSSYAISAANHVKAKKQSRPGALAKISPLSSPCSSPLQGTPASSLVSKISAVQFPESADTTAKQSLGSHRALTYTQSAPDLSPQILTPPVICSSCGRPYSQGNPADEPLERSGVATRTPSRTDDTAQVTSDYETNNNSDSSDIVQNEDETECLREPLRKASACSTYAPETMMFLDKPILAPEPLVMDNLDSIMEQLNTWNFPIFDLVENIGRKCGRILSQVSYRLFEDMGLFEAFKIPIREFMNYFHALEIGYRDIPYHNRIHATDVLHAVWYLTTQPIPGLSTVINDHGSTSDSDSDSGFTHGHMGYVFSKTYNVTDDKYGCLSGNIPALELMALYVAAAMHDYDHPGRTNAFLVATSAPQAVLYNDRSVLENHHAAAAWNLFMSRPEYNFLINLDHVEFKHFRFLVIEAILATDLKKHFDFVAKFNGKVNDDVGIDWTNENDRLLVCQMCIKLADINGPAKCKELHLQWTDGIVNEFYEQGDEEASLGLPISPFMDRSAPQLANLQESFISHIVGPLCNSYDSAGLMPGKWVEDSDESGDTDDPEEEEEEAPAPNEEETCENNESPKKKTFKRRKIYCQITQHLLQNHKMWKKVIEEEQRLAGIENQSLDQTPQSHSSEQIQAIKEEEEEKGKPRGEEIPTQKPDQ
Note: assay procedure not described here.

Sequence of 3',5'-cyclic-AMP phosphodiesterase 4A (P27815 whole entry): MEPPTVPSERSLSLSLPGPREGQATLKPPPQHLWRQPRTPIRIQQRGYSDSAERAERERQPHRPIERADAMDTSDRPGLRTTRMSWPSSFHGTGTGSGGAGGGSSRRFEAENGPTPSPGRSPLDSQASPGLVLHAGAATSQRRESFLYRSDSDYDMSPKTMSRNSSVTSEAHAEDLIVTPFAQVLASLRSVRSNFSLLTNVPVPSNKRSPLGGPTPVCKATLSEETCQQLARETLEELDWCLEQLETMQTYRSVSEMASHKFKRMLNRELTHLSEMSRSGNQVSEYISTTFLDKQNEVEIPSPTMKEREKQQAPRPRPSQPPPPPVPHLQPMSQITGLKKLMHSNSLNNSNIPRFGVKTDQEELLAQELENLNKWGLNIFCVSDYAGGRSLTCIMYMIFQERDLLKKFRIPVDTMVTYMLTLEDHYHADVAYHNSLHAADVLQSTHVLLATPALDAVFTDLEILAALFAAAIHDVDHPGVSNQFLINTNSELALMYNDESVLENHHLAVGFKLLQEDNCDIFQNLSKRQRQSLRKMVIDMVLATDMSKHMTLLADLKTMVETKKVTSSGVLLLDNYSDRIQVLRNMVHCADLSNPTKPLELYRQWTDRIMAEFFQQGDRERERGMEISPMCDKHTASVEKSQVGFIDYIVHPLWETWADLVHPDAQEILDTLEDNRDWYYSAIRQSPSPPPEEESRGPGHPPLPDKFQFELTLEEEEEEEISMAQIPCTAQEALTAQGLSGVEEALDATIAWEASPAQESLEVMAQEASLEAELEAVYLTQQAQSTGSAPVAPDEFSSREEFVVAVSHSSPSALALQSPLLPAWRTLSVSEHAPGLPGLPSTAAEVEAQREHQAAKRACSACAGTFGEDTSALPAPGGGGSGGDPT

Compound	AC50 [1] [µM]	AC50 [2] [µM]	AC50 [3] [µM]	AC50 [4] [µM]	AC50 [5] [µM]	AC50 (Histamine H3 receptor) [µM]	AC50 (Adenosine receptor A3) [µM]	AC50 (Prothrombin) [µM]	AC50 [6] [µM]	AC50 (Progesterone receptor) [µM]	AC50 [7] [µM]
Cc1nc(-c2ccc(OCC(C)C)c(C#N)c2)sc1C(=O)O [FEBUXOSTAT]	29	> 30	> 30	> 30	> 30	> 30	> 30	> 30	> 30	16.1	> 30
CC(=O)OC(C)C[N+](C)(C)C (configuration not stated) [METHACHOLINE]	> 30	2.22	> 30	> 30	> 30	> 30	> 30	> 30	> 30	> 30	> 30
